# In patent US9394284B2, “Compounds act at multiple prostaglandin receptors giving a general anti-inflammatory response” (Allergan, Inc., priority 2010, dated 2016):
# Tests used:
# Format in all cases: cell-based
# [1] = target: T1, human prostanoid EP2 receptor (Homo sapiens, UniProt P43116); test: FLIPR Ca2+ signaling antagonist assay, EP2 receptor stable cell line; conditions: HEK-293 EBNA stable cell line; standard agonist PGE2; NA = inactive (no antagonism or Kb 10,000 nM); PAg, Ag not defined
# T1 construct: expressed in transfected cells
# Procedure: (§1) The above compounds were tested for PG antagonist activity as follows using human recombinant prostanoid receptor (DP1, EP1-4, FP, IP and TP) stable cell lines:
# (§2) In order to measure the response of Gs and Gi coupled prostanoid receptors as a Ca^2+ signal, chimeric G protein cDNAs were used. Stable cell lines over-expressing human prostanoid DP1, EP1-4, FP, IP, and TP receptors were established as follows:
# (§3) Briefly, human prostanoid DP1, EP2, and EP4 receptor cDNAs were co-transfected with chimeric Gqs cDNA containing a haemagglutanin (HA) epitope; human prostanoid EP3 receptors were co-transfected with chimeric Gqi-HA; human EP1, FP, IP, and TP receptor cDNAs were expressed with no exogenous G-proteins. Gqs and Gqi chimeric cDNAs (Molecular Devices, Sunnyvale, Calif., U.S.A.), as well as cDNAs of prostanoid receptors, were cloned into a pCEP4 vector with a hygromycin B selection marker. Transfection into HEK-293 EBNA (Epstein-Barr virus nuclear antigen) cells was achieved by the FuGENE 6 transfection Reagent (Roche Applied Science, Indianapolis, Ind., USA). Stable transfectants were selected according to hygromycin resistance. Because Gqs and Gqi contained an HA epitope, G-protein expression was detected by Western blotting analysis using anti-mouse HA monoclonal antibody and horseradish peroxidase (HRP)-conjugated secondary antibody, while functional expression of prostanoid receptors was detected by FLIPR screening (Matias et al., 2004). These stable cell lines were validated using previously published antagonists at 10 μM against serial dilutions of standard agonists by FLIPR functional assays for Ca^2+ Signaling (as described below).
# (§4) Ca^2+ signaling studies were performed using a FLIPR TETRA system (Molecular Devices, Sunnyvale, Calif., USA) in the 384-format. This is a high-throughput instrument for cell-based assays to monitor Ca^2+ signaling associated with GPCRs and ion channels. Cells were seeded at a density of 5×10^4 cells/well in BioCoat poly-D-lysine coated, black wall, clear bottom 384-well plates (BD Biosciences, Franklin lakes, NJ, USA) and allowed to attach overnight in an incubator at 37° C. The cells were then washed twice with HBSS-HEPES buffer (Hanks' balanced salt solution without bicarbonate and phenol red, 20 mM HEPES, pH 7.4) using an ELx405 Select CW Microplate Washer (BioTek, Winooski, Vt., USA). After 60 min of dye-loading in the dark using the Ca^2+-sensitive dye Fluo-4AM (Invitrogen, Carlsbad, Calif., USA), at a final concentration of 2×10^−6M, the plates were washed 4 times with HBSS-HEPES buffer to remove excess dye and leaving 50 μl of buffer in each well. The plates were then placed in the FLIPR TETRA instrument and allowed to equilibrate at 37° C. AGN-211377 was added in a 25 μl volume to each well to give final concentrations of 0.1 μM, 0.3 μM, 1 μM, 3 μM, 10 μM, and 30 μM; or 0.067 μM, 0.1 μM, 0.2 μM, 0.3 μM, 0.67 μM, and 1 μM for cells over-expressing TP receptors. After 4.5 minutes, a 7-point serial dilution of the standard agonist for the corresponding receptor, in a 25 μl volume was injected at the final concentrations from 10^−11M to 10^−5M in 10-fold serial dilution increments for cells expressing human recombinant DP1, EP1, EP2, EP3, EP4, FP, and IP receptors. The dose range for the standard agonist for human recombinant TP receptors was from 10^−12 M to 10^−6 M. HBSS-HEPES buffer was used as the negative control for the standard agonists. Cells were excited with LED (light emitting diode) excitation at 470-495 nm and emission was measured through an emission filter at 515-575 nm. Assay plates were read for 3.5 minutes using the FLIPR^TETRA. The peak increase in fluorescence intensity was recorded for each well. On each plate, negative controls, dose response of positive controls, and co-treatments of antagonist-agonist for each dose were in triplicates.
# (§5) Standard agonists were as follows: DP=BW 245C, EP1-EP4=PGE2, FP=17-phenyl-PGF2α, IP=Cicaprost, and TP=U-46619. […]
# [2] = target: T2, human prostanoid IP receptor (Homo sapiens, UniProt P43119); test: FLIPR Ca2+ signaling antagonist assay, IP receptor stable cell line; conditions: HEK-293 EBNA stable cell line; standard agonist Cicaprost; NA = inactive (no antagonism or Kb 10,000 nM); PAg, Ag not defined
# T2 construct: expressed in transfected cells
# Procedure: as §1, §2, §3, §4, §5
# [3] = target: T3, human prostanoid DP1 receptor (Homo sapiens, UniProt Q13258); test: FLIPR Ca2+ signaling antagonist assay, DP1 receptor stable cell line; conditions: HEK-293 EBNA stable cell line; standard agonist BW 245C; NA = inactive (no antagonism or Kb 10,000 nM); PAg, Ag not defined
# T3 construct: expressed in transfected cells
# T3 sequence (Q13258 1-359): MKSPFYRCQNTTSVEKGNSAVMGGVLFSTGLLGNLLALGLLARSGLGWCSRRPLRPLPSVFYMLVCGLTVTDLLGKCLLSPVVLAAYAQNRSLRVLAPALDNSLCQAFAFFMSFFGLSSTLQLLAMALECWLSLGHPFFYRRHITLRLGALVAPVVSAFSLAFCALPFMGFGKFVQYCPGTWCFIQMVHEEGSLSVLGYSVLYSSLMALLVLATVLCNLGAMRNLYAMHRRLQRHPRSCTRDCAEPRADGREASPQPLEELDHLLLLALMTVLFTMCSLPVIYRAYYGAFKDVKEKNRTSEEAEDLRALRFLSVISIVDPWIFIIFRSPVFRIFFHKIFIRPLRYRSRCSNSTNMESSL
# Procedure: as §1, §2, §3, §4, §5
# [4] = target: T4, human prostanoid TP receptor (Homo sapiens, UniProt P21731); test: FLIPR Ca2+ signaling antagonist assay, TP receptor stable cell line; conditions: HEK-293 EBNA stable cell line; standard agonist U-46619; NA = inactive (no antagonism or Kb 10,000 nM); PAg, Ag not defined
# T4 construct: expressed in transfected cells
# T4 sequence (P21731 1-343): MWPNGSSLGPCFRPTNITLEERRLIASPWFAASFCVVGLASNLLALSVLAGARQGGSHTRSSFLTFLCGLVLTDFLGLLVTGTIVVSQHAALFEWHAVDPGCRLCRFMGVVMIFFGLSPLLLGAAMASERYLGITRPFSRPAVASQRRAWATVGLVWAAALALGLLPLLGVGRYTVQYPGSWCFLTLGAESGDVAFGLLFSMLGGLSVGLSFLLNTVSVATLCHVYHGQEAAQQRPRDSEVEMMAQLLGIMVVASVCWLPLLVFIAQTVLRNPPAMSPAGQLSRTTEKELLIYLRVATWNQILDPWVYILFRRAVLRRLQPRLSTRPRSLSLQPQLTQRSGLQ
# Procedure: as §1, §2, §3, §4, §5
# [5] = target: T5, human prostanoid EP1 receptor (Homo sapiens, UniProt P34995); test: FLIPR Ca2+ signaling antagonist assay, EP1 receptor stable cell line; conditions: HEK-293 EBNA stable cell line; standard agonist PGE2; NA = inactive (no antagonism or Kb 10,000 nM); PAg, Ag not defined
# T5 construct: expressed in transfected cells
# T5 sequence (P34995 1-402): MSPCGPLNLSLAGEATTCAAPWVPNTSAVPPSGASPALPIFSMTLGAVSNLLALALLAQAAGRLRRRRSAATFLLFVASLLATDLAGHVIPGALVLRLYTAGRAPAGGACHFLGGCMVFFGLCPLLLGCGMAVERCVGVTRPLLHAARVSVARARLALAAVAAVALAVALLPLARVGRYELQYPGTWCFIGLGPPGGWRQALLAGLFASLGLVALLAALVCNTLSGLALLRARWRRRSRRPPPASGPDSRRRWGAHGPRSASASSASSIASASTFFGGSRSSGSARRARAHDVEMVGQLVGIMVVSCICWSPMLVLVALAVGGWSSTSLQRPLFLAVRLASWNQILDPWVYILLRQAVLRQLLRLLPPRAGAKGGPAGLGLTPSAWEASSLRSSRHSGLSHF
# Procedure: as §1, §2, §3, §4, §5
# [6] = target: T6, human prostanoid FP receptor (Homo sapiens, UniProt P43088); test: FLIPR Ca2+ signaling antagonist assay, FP receptor stable cell line; conditions: HEK-293 EBNA stable cell line; standard agonist 17-phenyl-PGF2α; NA = inactive (no antagonism or Kb 10,000 nM); PAg, Ag not defined
# T6 construct: expressed in transfected cells
# Procedure: as §1, §2, §3, §4, §5
# [7] = target: T7, human prostanoid EP4 receptor (Homo sapiens, UniProt P35408); test: FLIPR Ca2+ signaling antagonist assay, EP4 receptor stable cell line; conditions: HEK-293 EBNA stable cell line; standard agonist PGE2; NA = inactive (no antagonism or Kb 10,000 nM); PAg, Ag not defined
# T7 construct: expressed in transfected cells
# Procedure: as §1, §2, §3, §4, §5
# T6 sequence (P43088 whole entry): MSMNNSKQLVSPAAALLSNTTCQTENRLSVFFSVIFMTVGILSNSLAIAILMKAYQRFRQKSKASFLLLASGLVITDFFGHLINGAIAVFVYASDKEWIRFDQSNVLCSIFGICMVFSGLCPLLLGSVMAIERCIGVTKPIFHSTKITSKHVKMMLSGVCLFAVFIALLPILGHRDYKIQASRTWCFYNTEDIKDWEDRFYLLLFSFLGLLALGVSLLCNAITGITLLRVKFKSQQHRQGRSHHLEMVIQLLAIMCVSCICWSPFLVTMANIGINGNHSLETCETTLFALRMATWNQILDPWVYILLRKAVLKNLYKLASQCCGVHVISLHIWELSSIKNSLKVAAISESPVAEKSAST
# T1 sequence (P43116 whole entry): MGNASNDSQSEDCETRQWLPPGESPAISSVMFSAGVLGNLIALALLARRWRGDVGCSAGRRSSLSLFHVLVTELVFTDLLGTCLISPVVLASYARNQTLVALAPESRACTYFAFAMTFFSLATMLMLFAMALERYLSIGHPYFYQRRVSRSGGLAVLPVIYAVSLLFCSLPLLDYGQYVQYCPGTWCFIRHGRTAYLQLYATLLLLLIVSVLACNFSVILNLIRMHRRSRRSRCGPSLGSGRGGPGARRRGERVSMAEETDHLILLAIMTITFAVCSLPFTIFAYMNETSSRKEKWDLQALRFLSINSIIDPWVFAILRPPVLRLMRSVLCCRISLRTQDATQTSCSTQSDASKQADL
# T7 sequence (P35408 whole entry): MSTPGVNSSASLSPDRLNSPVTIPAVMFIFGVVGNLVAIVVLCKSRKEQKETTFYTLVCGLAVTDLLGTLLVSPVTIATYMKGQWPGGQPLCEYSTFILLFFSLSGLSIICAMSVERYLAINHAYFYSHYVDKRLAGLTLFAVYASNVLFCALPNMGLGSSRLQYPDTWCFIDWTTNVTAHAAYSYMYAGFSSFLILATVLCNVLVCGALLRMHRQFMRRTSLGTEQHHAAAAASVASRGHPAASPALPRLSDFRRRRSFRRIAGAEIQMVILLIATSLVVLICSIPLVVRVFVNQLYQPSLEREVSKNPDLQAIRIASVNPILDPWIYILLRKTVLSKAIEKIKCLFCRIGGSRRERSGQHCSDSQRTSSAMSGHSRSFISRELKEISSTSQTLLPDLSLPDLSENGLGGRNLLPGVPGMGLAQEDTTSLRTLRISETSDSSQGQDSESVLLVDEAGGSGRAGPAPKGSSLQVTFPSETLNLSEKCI
# T2 sequence (P43119 whole entry): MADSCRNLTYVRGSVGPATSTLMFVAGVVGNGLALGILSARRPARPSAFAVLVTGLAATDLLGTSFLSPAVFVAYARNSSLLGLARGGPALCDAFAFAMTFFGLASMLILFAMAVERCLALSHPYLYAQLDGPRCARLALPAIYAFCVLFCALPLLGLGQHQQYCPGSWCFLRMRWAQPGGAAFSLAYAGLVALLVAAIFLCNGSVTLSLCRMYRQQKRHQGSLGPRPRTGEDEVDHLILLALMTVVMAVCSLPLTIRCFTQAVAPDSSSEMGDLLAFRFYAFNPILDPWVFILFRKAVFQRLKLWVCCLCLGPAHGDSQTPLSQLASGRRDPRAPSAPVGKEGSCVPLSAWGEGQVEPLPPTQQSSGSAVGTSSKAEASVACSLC
SMILES,IP (FLIPR) Kb [2],DP1 (FLIPR) Kb [3],TP (FLIPR) Kb [4],EP1 (FLIPR) Kb [5],Kb [6],Kb [1],EP2 (FLIPR) Kb [1],EP4 (FLIPR) Kb [7],Kb [3],Kb [5],Kb [4],Kb [7],Kb [2]
"C#Cc1ccc(OCC(CC)CC)c(Cn2nc(CCC(=O)O)cc2C)c1 [Example 64, 3-{1-[5-Ethynyl-2-(2-ethyl-butoxy)-benzyl]-5-methyl-1H-pyrazol-3-yl}-propionic acid]",,,,,50 nM,,,,800 nM,270 nM,9 nM,500 nM,2000 nM
"Cc1cc(CCC(=O)O)nn1Cc1cc(Cl)ccc1OC(CC(C)C)CC(C)C [Example 23, 3-[1-(5-Chloro-2-(1-isobutyl-3-methylbutoxy)benzyl)-5-methyl-1H-pyrazol-3-yl]-propionic acid]",Ag,,Ag,,,,PAg,Ag,160 nM,1500 nM,,,
"Cc1cc(CCC(=O)O)nn1Cc1cc(Br)ccc1OCC(C)C [Example 16, 3-[1-(5-Bromo-2-isobutoxybenzyl)-5-methyl-1H-pyrazol-3-yl]-propionic acid]",,,,,70 nM,2700 nM,,,200 nM,14 nM,14 nM,1000 nM,
"CCC(CC)COc1ccc(C#N)cc1Cn1nc(CCC(=O)O)cc1C [Example 60, 3-{1-[5-Cyano-2-(2-ethyl-butoxy)-benzyl]-5-methyl-1H-pyrazol-3-yl}-propionic acid]",,,,,1400 nM,,,,4400 nM,2100 nM,120 nM,2400 nM,5400 nM
"CCC(CC)COc1ccc(Br)cc1Cn1nc(CC(C)C(=O)O)cc1C (stereo not shown) [Example 67, 3-{1-[5-Bromo-2-(2-ethyl-butoxy)-benzyl]-5-methyl-1H-pyrazol-3-yl}-2-methyl-propionic acid]",,,,,140 nM,,,,400 nM,10 nM,20 nM,70 nM,1500 nM
"CCC(CC)COc1ccc(C(C)(C)C)cc1Cn1nc(CCC(=O)O)cc1C [Example 49, 3-[1-[2-(2-Ethyl-butoxy)-5-tert-butyl-benzyl]-5-methyl-1H-pyrazol-3-yl]-propionic acid]",,,,,1700 nM,,,,270 nM,40 nM,24 nM,1800 nM,2500 nM

# More lines, main results first:
IP (FLIPR) Kb [2],DP1 (FLIPR) Kb [3],TP (FLIPR) Kb [4],EP1 (FLIPR) Kb [5],Kb [6],Kb [1],SMILES,EP2 (FLIPR) Kb [1],EP4 (FLIPR) Kb [7],Kb [3],Kb [5],Kb [4],Kb [7],Kb [2]
PAg,PAg,PAg,PAg,300 nM,,"Cc1cc(CCC(=O)O)nn1Cc1cc(Cl)ccc1OCCC1CCCC1 [Example 39, 3-[1-(5-Chloro-2-(2-cyclopentylethoxy)benzyl)-5-methyl-1H-pyrazol-3-yl]-propionic acid]",PAg,PAg,,,,,
PAg,,Ag,,5900 nM,9800 nM,"Cc1cc(CCC(=O)O)nn1Cc1cc(Cl)ccc1OCc1ccc(Cl)cc1C(F)(F)F [Example 29, 3-[1-(5-Chloro-2-(4-chloro-2-trifluoromethylbenzyloxy)benzyl)-5-methyl-1H-pyrazol-3-yl]-propionic acid]",,,790 nM,70 nM,,,
,,,,180 nM,2500 nM,"Cc1cc(CCC(=O)O)nn1Cc1cc(Cl)ccc1OCC(C)C [Example 42, 3-[1-(5-Chloro-2-(2-methylpropyloxy)benzyl)-5-methyl-1H-pyrazol-3-yl]-propionic acid]",,,260 nM,30 nM,40 nM,1600 nM,
,,,,450 nM,,"Cc1cc(CC(C)(C)C(=O)O)nn1Cc1cc(Cl)ccc1OCC1CCCC1 [Example 72, 3-{1-[5-Chloro-2-(2-cyclopentylmethoxy)-benzyl]-5-methyl-1H-pyrazol-3-yl}-2,2-dimethyl-propionic acid]",,,560 nM,70 nM,40 nM,180 nM,1700 nM
,PAg,,,160 nM,,"Cc1cc(CCC(=O)O)nn1Cc1cc(Cl)ccc1C#CCC(C)C [Example 76, 3-{1-[5-Chloro-2-(4-methylpentynyl)-benzyl]-5-methyl-1H-pyrazol-3-yl}-propionic acid]",,,,200 nM,7 nM,1200 nM,4500 nM
,,,,90 nM,,"CCC(C)CCOc1ccc(Cl)cc1Cn1nc(CCC(=O)O)cc1C (stereo not shown) [Example 22, 3-[1-(5-Chloro-2-(3-methylpentyloxy)benzyl)-5-methyl-1H-pyrazol-3-yl]-propionic acid]",,,340 nM,140 nM,< 1 nM,600 nM,5200 nM
